In patent US5849690A, “Anti-aggregatory peptides” (SmithKline Beecham Corporation, priority 1992, dated 1998):
Entries after “also recorded” stand apart in the source; their conditions may differ. Residues, ends and D or L forms follow the SMILES beside them.

Assays:
[1] = biological target: T1, Platelet rich plasma, PRP (Canis lupus familiaris, UniProt A0A8I3N5G5+A0A8I3PMU9); test: Inhibition of platelet aggregation, PRP/ADP; type: cell-based; details: dog platelet rich plasma, 2 μM ADP, peptide added 3 min. prior to agonist; read-out: Antiaggregatory Activity IC50, μM PRP/ADP
T1 sequence (A0A8I3N5G5 1-1047): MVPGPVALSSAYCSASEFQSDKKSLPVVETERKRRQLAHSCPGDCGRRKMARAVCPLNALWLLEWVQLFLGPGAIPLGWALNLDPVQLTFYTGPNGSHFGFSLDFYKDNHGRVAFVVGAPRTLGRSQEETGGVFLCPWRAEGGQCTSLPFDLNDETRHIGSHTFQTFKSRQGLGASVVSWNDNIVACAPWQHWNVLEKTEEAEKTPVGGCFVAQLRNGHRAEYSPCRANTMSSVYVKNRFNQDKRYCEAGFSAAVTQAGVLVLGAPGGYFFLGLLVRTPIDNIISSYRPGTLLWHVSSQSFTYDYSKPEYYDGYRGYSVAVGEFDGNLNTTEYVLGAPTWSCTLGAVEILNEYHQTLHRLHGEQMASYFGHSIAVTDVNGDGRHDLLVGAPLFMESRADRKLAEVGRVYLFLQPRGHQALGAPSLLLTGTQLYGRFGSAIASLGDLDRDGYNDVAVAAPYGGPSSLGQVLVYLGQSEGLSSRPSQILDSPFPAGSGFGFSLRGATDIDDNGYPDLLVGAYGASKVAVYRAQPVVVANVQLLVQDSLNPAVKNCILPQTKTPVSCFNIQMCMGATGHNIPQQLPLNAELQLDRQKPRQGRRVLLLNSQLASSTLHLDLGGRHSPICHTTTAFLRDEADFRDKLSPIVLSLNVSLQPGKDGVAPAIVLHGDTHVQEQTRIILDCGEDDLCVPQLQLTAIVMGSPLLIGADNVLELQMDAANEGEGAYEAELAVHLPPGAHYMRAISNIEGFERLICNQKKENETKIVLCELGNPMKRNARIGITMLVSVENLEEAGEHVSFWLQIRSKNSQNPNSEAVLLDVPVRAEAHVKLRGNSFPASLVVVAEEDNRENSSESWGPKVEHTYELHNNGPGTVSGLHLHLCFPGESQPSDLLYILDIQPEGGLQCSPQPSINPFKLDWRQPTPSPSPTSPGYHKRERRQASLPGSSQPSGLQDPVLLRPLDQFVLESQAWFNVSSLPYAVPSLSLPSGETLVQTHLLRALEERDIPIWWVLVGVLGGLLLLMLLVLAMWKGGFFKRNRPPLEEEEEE
T1 sequence (A0A8I3PMU9 1-919): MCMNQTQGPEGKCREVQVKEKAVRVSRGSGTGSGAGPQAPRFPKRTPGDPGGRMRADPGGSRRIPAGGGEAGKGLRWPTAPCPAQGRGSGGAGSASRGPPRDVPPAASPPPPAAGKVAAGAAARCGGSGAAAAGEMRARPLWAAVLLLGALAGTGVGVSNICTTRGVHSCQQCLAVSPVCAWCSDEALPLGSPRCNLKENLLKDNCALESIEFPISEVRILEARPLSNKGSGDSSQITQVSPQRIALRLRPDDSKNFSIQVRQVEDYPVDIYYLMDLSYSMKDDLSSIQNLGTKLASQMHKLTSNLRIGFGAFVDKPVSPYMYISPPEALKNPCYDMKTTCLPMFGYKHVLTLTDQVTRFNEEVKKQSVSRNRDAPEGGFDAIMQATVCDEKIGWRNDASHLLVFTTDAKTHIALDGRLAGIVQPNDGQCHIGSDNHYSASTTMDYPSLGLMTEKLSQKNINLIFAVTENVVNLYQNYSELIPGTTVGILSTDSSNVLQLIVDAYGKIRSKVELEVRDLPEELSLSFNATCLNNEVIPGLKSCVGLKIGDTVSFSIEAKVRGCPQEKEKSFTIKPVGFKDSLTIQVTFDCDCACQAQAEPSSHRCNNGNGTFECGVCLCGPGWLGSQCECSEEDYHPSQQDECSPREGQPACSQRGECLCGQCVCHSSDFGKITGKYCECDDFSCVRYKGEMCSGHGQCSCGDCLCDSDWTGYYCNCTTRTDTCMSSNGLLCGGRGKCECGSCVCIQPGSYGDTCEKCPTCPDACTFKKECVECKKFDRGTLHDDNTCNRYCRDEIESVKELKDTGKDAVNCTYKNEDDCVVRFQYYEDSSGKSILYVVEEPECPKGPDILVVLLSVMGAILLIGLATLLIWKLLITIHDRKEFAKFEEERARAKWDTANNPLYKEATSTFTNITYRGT
Method: (§1) Blood was collected (citrated to prevent coagulation) from, naive, adult mongrel dogs. Platelet rich plasma, PRP, was prepared by centrifugation at 150×g for 10 min. at room temperature. Washed platelets were prepared by centrifuging PRP at 800×g for 10 min. The cell pellet thus obtained was washed twice in Tyrode's buffer (pH 6.5) without Ca^2+ and resuspended in Tyrode's buffer (pH 7.4) containing 1.8 mM Ca^2+ at […]. Peptides were added 3 min. prior to the agonist in all assays of platelet aggregation. Final agonist concentrations were 0.1 unit/ml thrombin and 2 μM ADP (Sigma). Aggregation was monitored in a Chrono-Log Lumi-Aggregometer. Light transmittance 5 min. after addition of the agonist was used to calculate percent aggregation according to the formula % aggregation=[(90-CR).div.(90-10)]×100, where CR is the chart reading, 90 is the baseline, and 10 is the PRP blank reading. IC50 's were determined by plotting [% inhibition of aggregation] vs. [concentration of peptide]. Peptides were assayed at 200 μM and diluted sequentially by a factor of 2 to establish a suitable dose response curve.

[2] = Stability of the peptide to plasma proteases (3 hrs. incubation in PRP before agonist); type: in vitro ADME, dog; details: peptide incubated 3 hrs. in PRP prior to addition of agonist
Method: as §1
To assess the stability of the peptide to plasma proteases, the peptides were incubated for 3 hrs. (rather than 3 min.) in the PRP prior to addition of the agonist.

Washed platelets = biological target: T2, Washed platelets (Canis lupus familiaris, UniProt A0A8I3N5G5+A0A8I3PMU9); test: Inhibition of platelet aggregation, WP/Thrombin; type: cell-based; details: dog washed platelets, 0.1 unit/ml thrombin, peptide added 3 min. prior to agonist; read-out: Antiaggregatory Activity IC50, μM WP/Thrombin
T2 sequence (A0A8I3N5G5 1-1047): T1 sequence (A0A8I3N5G5 1-1047)
T2 sequence (A0A8I3PMU9 1-919): T1 sequence (A0A8I3PMU9 1-919)
Method: as §1

[3] = test system: platelet aggregation/thrombus formation; test: In vivo inhibition of thrombus formation, coronary thrombosis model in anesthetized dogs; design: species or system dog
Method: Briefly, a small Lexan® cylinder is placed around a mechanically damaged left circumflex coronary artery to produce a fixed partial obstruction of 80-90%. Under these conditions, platelets adhere to the exposed subendothelial collagen and aggregate at the obstructed site. Aggregation is assessed as a gradual reduction in blood flow over 2-3 min. until the thrombus is mechanically dislodged from the lumen of the obstructed vessel and coronary blood flow is restored. This process is allowed to repeat itself every 2-3 min. through the control period of the experiment.

preformed human clot = test: Human clot lysis assay (tPA induced fibrinolysis); type: biochemical
Method: The human clot lysis assay is used to assess the in vitro effect of anti-fibrotic peptide on tPA induced fibrinolysis. Outdated, citrated, human plasma from the American Red Cross is spun for 20 min. at 1300X g to remove remaining blood cells. A solution consisting of plasma, ^125 I-fibrinogen, calcium chloride and thrombin is added to 6 mm tissue culture plates and incubated 15 to 18 hrs. at 37° C. The next morning, each well is rinsed to release the clot. Clots are washed twice with Tris-buffered saline, containing heparin and albumin. Each clot is then added to 1.0 ml of the same plasma used to prepare the clot. tPA is added to tubes over a concentration range of 7 to 250 ng/ml (final concentration). Tubes are incubated at 37° C. with gentle rotation for 4 hrs. At the end of 4 hrs., a 25 μl aliquot is removed and counted to measure ^125 I released from the clot. All samples are run in triplicate.

Compound | IC50 [1] | % Activity after 3 hr. in PRP [2] | IC50 (Washed platelets) | further results
CC(=O)N[C@H]1CSSC[C@@H](C(N)=O)NC(=O)[C@H](CO)NC(=O)[C@H](CC(=O)O)NC(=O)CNC(=O)[C@H](CCCNC(=N)N)N(C)C1=O [Example 1, N^α -Ac-Cyclo(S,S) Cys-MeArg-Gly-Asp-Ser-Cys-NH2] (HELM PEPTIDE1{[ac].C.[meR].G.D.S.C.[am]}$PEPTIDE1,PEPTIDE1,2:R3-7:R3$$$V2.0) | 1.1 µM | 100% |  | 
CC(=O)N[C@H]1CSSC2(CCCCC2)C(C(N)=O)NC(=O)[C@H](CC(=O)O)NC(=O)CNC(=O)[C@H](CCCNC(=N)N)NC1=O (stereo partly drawn) [Example 2, N^α -Ac-Cyclo(S,S) Cys-Arg-Gly-Asp-(D,L) APmp-NH2] (HELM PEPTIDE1{[ac].C.R.G.D.[O=C(C(N[*:1])C1(S[*:3])CCCCC1)[*:2]].[am]}$PEPTIDE1,PEPTIDE1,2:R3-6:R3$$$V2.0) | 1.53 µM | 100% |  | 
CC(=O)N[C@H]1CSSC[C@@H](C(N)=O)NC(=O)[C@H](CO)NC(=O)[C@H](CC(=O)O)NC(=O)CNC(=O)[C@H](CCCN=C(N)N)NC1=O [Example 3, N^α -Ac-Cyclo(S,S) Cys-Arg-Gly-Asp-Ser-Cys-NH2] (HELM PEPTIDE1{[ac].C.R.G.D.S.C.[am]}$PEPTIDE1,PEPTIDE1,2:R3-7:R3$$$V2.0) |  |  | 54.3 µM | 
CC(=O)N(C)[C@@H](CCCNC(=N)N)C(=O)NCC(=O)N[C@@H](CC(=O)O)C(=O)N[C@@H](CO)C(N)=O [Example 26, N^α -Ac-N a-MeArg-Gly-Asp-Ser-NH2] (HELM PEPTIDE1{[ac].[meR].G.D.S.[am]}$$$$V2.0) | 7.4 µM | 100% | 28.2 µM | 
CC(=O)N[C@@H](CCCN=C(N)N)C(=O)NCC(=O)N[C@@H](CC(=O)O)C(=O)N[C@@H](CO)C(N)=O [Example 27, N^α -Ac-Arg-Gly-Asp-Ser-NH2] (Ac-RGDS-NH2) |  | 0% |  | effect of infusion upon coronary arterial blood pressure ([3]; 400 mM at 0.1 ml/min): no effect
CC(=O)N[C@@H](CCCNC(=N)N)C(=O)NCC(=O)N[C@@H](CC(=O)O)C(=O)N[C@@H](CO)C(N)=O [Example 27, N^α -Ac-Arg-Gly-Asp-Ser-NH2] (Ac-RGDS-NH2) |  |  |  | effect upon tPA promoted human clot lysis in vitro (preformed human clot; 1 mM peptide, listed as Ac-RGDS-NH2): no interaction; also recorded: no effect; inhibition of thrombus formation (mean coronary blood flow) ([3]; 400 mM at 0.013 ml/min.): partial inhibition with prolongation of time to complete blockage; inhibition of thrombus formation (mean coronary blood flow) ([3]; 400 mM at 0.026 ml/min. infusion, listed as Ac-RGDS-NH2): moderate inhibition with spontaneous sloughing off of the thrombus; also recorded: moderate inhibition with spontaneous sloughing off of thrombi; inhibition of thrombus formation (mean coronary blood flow) ([3]; 400 mM at 0.052 ml/min. infusion rate): complete inhibition of thrombus formation; inhibition of thrombus formation (coronary blood flow) ([3]; coronary infusion 400 mM at 0.1 ml/min, listed as Ac-RGDS-NH2): complete inhibition of thrombus formation
CC(=O)N[C@@H](CCCN=C(N)N)C(=O)NCC(=O)N[C@@H](CC(=O)O)C(N)=O [Example 29, N^α -Ac-Arg-Gly-Asp-NH2] | 138 µM |  | 356 µM | 
CC(=O)N[C@@H](CCCNC(=N)N)C(=O)NCC(=O)N[C@@H](CC(=O)O)C(=O)N[C@@H](Cc1ccc2ccccc2c1)C(N)=O [Example 32, N^α -Ac-Arg-Gly-Asp-Nal-NH2] (HELM PEPTIDE1{[ac].R.G.D.[O=C([C@H](Cc1ccc2ccccc2c1)N[*:1])[*:2]].[am]}$$$$V2.0) | 40.5 µM | 100% |  | 
CC(=O)N(C)[C@@H](CCCNC(=N)N)C(=O)NCC(=O)N[C@@H](CC(=O)O)C(=O)N[C@@H](Cc1ccccc1)C(N)=O [Example 35, N^α -Ac-MeArg-Gly-Asp-Phe-NH2] (HELM PEPTIDE1{[ac].[meR].G.D.F.[am]}$$$$V2.0) | 10.8 µM | 100% |  | 
N^α -Ac-Arg-Gly-Asp-Tyr-NH2 [Example 28] | 102 µM | 98% | 137 µM | 
tPA(MT2N3): tissue plasminogen activator (tPA), fibrinolytic agent used to induce clot lysis |  |  |  | EC50 of tPA-induced clot lysis, control period (preformed human clot; % clot lysis at 4 hours, tPA alone): 31.5 ± 9.9 µg/mL
